Earlier results in paper PMC8198792, “Prediction of Anticancer Peptides with High Efficacy and Low Toxicity by Hybrid Model Based on 3D Structure of Peptides” (International Journal of Molecular Sciences, 2021).
Read-outs that look alike come from different tables or passages of the source.

System: cancer cell lines
Design: method as in 6 sources, ref CancerPPD [45] and SATPdb ||| ref CancerPPD/SATPdb ||| ref CancerPPD, SATPdb, Swissprot (PDB) ||| ref CancerPPD/SATPdb/Swissprot(PDB) ||| ref CancerPPD / SATPdb ||| ...
Conditions: cited from earlier work
Excerpt: Supplement ijms-22-05630-s001.zip/ACPs(seguence).xlsx, sheet "D1" | column: Activity || Supplement ijms-22-05630-s001.zip/ACPs(seguence).xlsx, sheet "D2" | column: Activity || Supplement ijms-22-05630-s001.zip/ACPs(seguence).xlsx, sheet "D3" | column: Activity || (+ 2 further places)

[1] = ACPs dataset D1, 1 = ACP (positive), 0 = non-ACP (negative), label taken from databases, ref CancerPPD [45] and SATPdb
[2] = ACPs dataset D4 (sheet "D4"), label 1 = ACP (CancerPPD ID), 0 = non-ACP (non-anticancer AMP, SATPdb ID), ref CancerPPD [45] and SATPdb
[3] = ACPs dataset D1, label 1 = ACP, 0 = non-ACP (non-anticancer AMPs from SATPdb), ref CancerPPD/SATPdb
[4] = ACPs dataset D4 (sheet "D4"), label 1 = ACP, 0 = non-ACP, ref CancerPPD / SATPdb
[5] = ACPs dataset D2 (supplement ACPs(seguence).xlsx, sheet D2), dataset label 1/0 (ACP / non-ACP), entries identified by Swissprot(PDB ID), ref CancerPPD/SATPdb/Swissprot(PDB)
[6] = ACPs dataset D5, sheet "D5", label 1 = ACP, 0 = non-ACP, ref CancerPPD [45] and SATPdb
[7] = ACPs dataset D3 (supplement sheet "D3"), 1 = ACP, 0 = non-ACP, ref CancerPPD [45] and SATPdb
[8] = ACPs dataset D5 (sheet "D5"), label 1 = ACP (positive set), 0 = non-ACP (negative set), ref CancerPPD [45] and SATPdb
[9] = ACPs dataset D4 (sheet "D4"), label 1 = ACP, experimentally validated ACPs, ref CancerPPD [45] and SATPdb
[10] = ACPs dataset D5 (sheet "D5"), label 1 = ACP (positive set), sequences with CancerPPD/SATPdb ID, ref CancerPPD, SATPdb
[11] = ACPs dataset sheet D2, 1 = ACP (CancerPPD/SATPdb ID), 0 = non-ACP (Swissprot/PDB ID), ref CancerPPD, SATPdb, Swissprot (PDB)

Substance: GLFSKFVGKGIKNFLIKGVKHIGKEVGMDVIRVGIDVAGCKIKGVC [satpdb10682]
- Activity [1]: 0
- Activity [2]: 0

Substance: FLPKTLRKFFCRIRGGRCAVLNCLGKEEQIGRCSNSGRKCCRKKK [satpdb12338]
- Activity [3]: 0
- Activity [2]: 0

Substance: EGVRNHVTCRINRGFCVPIRCPGRTRQIGTCFGPRIKCCRSW [satpdb13124]
- Activity [3]: 0
- Activity [4]: 0

Substance: MVQNDFVDSYDVTMLLQDDDGKQYYEYHKGLSLSDFEVLYGNTADEIIKLRLDKVL [2LE2 NMR - A/B 1-56]
- Activity [5]: 0
- Activity [6]: 0

Substance: FLSSIGKILGNLL [satpdb11843]
- Activity [3]: 0
- Activity [2]: 0

Substance: GLFKVIKKVASVIGGL [compound 4147]
- Activity [7]: 1
- Activity [2]: 1
- Activity [8]: 1

Substance: GIGKFLKKAKKFAKAFVKIINN [compound 1117]
- Activity [7]: 1
- Activity [2]: 1
- Activity [8]: 1

Substance: TEENRELVSELKRP [satpdb12614]
- Activity [1]: 1
- Activity [9]: 1
- Activity [10]: 1
- Activity [11]: 1

Substance: AWKKWAKAWKWAKAKWWAKAA [compound 4482]
- Activity [1]: 1
- Activity [9]: 1
- Activity [10]: 1
- Activity [11]: 1

Substance: SLIPHAINAVSAIAKHF [satpdb12892]
- Activity (ACPs dataset D3 (sheet "D3"), label 1 = ACP, 0 = non-ACP, ref CancerPPD/SATPdb): 0
- Activity [4]: 0
- Activity [6]: 0

Substance: GKWMSLLKKILK [compound 3651]
- Activity [7]: 1
- Activity [2]: 1
- Activity [8]: 1

Substance: MAKWRCKICGYIYDEDEGDPDNGISPGTKFEDLPDDWVCPLCGAPKSEFERIE [1YK5 X-ray 1.79 A/B/C/D 1-53]
- Activity [5]: 0
- Activity [6]: 0

Substance: KGRGKRRRCKQRPSDCPRR [satpdb22253]
- Activity [1]: 1
- Activity [9]: 1
- Activity [10]: 1
- Activity [11]: 1

Substance: ACYCRIPACLAGERRYGTCFYMGRVWAFCC [satpdb12594]
- Activity [3]: 0
- Activity [2]: 0

Substance: IFGAIWKGISSLL [satpdb10136]
- Activity [1]: 0
- Activity [2]: 0

Substance: MATAVYRCAKCGKEVELDLATAREVRCPYCGSKILYKPRPRVARRVKAI [4QIW X-ray 3.50 P/W 1-49]
- Activity [5]: 0
- Activity [8]: 0

Substance: GFGMALRLLRRVL [compound 3598]
- Activity [7]: 1
- Activity [2]: 1
- Activity [8]: 1

Substance: PDEDAINDALNKVCSTGRRQRSICKQLLKK [compound 3108]
- Activity [1]: 1
- Activity [9]: 1
- Activity [10]: 1
- Activity [11]: 1

Substance: KVKVKVKVpPTKVKVKVK [compound 3218]
- Activity [7]: 1
- Activity [2]: 1
- Activity [8]: 1

Substance: FLPIIGQLLSGLL [satpdb10701]
- Activity [7]: 0
- Activity [4]: 0
- Activity [6]: 0

Substance: SSTSPHRPRFS [satpdb14979]
- Activity [1]: 1
- Activity [9]: 1
- Activity [10]: 1
- Activity [11]: 1

Substance: LCNERPSQTWSGNCGNTAHCDKQCQDWEKASHGACHKRENHWKCFCYFNC [1BK8 NMR - A 1-50]
- Activity [5]: 0
- Activity [8]: 0

Substance: PGLKGKRGDSGSPATWTTRG [satpdb10562]
- Activity [1]: 1
- Activity [9]: 1
- Activity [10]: 1
- Activity [11]: 1

Substance: GLFKVIKKVAKVIKKL [compound 4156]
- Activity [7]: 1
- Activity [2]: 1
- Activity [8]: 1

Substance: QCESGPCCRNCKFLKEGTICKRARGDDMDDYCNGKTCDCPRNPHKGPAT [1RO3 NMR - A 1-49]
- Activity [5]: 0
- Activity [8]: 0

Substance: kWkSFLkTFkSLKkTVLHTLLkAISS [compound 1231]
- Activity [7]: 1
- Activity [2]: 1
- Activity [8]: 1

Substance: GECEQCFSDGGDCTTCFNNGTGPCANCLAGYPAGCSNSDCTAFLSQCYGGC [1HA8 NMR - A 1-51]
- Activity [5]: 0
- Activity [6]: 0

Substance: KSSAYSLQMGATAIKQVKKLFKKWGW [compound 4448]
- Activity [1]: 1
- Activity [9]: 1
- Activity [10]: 1
- Activity [11]: 1
